Patent publication US10179164B2, “Method for inducing an immune response for treatment of cancer and autoimmune diseases or conditions” (priority 2011, dated 2019)

Assays:
IL-12p70 = assay: Intracellular IL-12p70 flow cytometry of CD3- bone marrow cells; format: cell-based, mouse (C57BL/6); conditions: CD3- BM cells, PE-anti-IL-12p70
Text: CD3+ cells were removed from BM cells using the fluorescence activated cell sorter and then untreated or treated with JgD, gD or JH. Flow cytometric analysis of the sorted population confirmed the removal of CD3 positive cells. The CD3− BM cells were labeled with FIT C-anti-CD8 (Beckman Coulter (clone 53-6.7)), fixed with paraformaldehyde, permeabilized with saponin (Intraprep, Immunotech), labeled with PE-anti-IL-12p70 (Beckman Coulter) and then post fixed with paraformaldehyde prior to immunofluorescence analysis.

[1] = tested on: C57BL/6 bone marrow cells (monocyte population); assay: Flow cytometry of CD11c and CD86 expression on peptide-treated bone marrow cells; format: cell-based, mouse (C57BL/6); conditions: BM monocyte population by light scatter, second day after treatment; for CD11c expression: PE-anti-CD11c, versus untreated; for CD86 expression: PE-anti-CD86, versus untreated
Procedure: Bone marrow (BM) cells were prepared. Briefly, the femurs and tibias were obtained from five C57BL/6 female mice, and the ends were removed to expose the hollow bone packed with marrow. BM cells were flushed from the bones with cold Hanks Balanced Salt Solution (HBSS) using a sterile disposable 22 g needle and pooled. Red blood cells (RBCs) were lysed using Tris-buffered ammonium chloride and resultant cells were washed 3 times in HBSS, BM cells were suspended in tissue culture medium (TCM) (RPMI 1640 with glutaminic plus […] PenStrep, 50 μM 2-mercaptoethanol, and 5% fetal calf serum) at approximately 5×10^6 cells/ml and incubated for 1 hour at 37° C. in a 5% CO2 atmosphere in plastic tissue culture flasks to remove adherent, mature macrophages. Decanted non-adherent cells were resuspended in TCM and 1.5×10^6 BM cells in 1 ml were placed into each well of a 24 well tissue culture plate (Falcon) and either left untreated or treated with […] of peptide J or JgD LEAPS™ heteroconjugate. After incubation for 48 hrs at 37° C., cells were viewed and photographed for changes in morphology, tissue culture supernatants were removed and the cells were prepared for flow cytometric analysis.
For analysis of CD11c and CD86 expression, untreated and peptide treated BM cells, prepared and treated as described above, were labeled with PE-anti-Cd11c or PE-anti CD86 (Beckman Coulter Fullerton, Calif.) At least […] were analyzed (Altra FACS, Beckman Coulter) using forward and side scatter parameters to limit (gating) the immunofluorescence analysis to cells of the size and granularity of monocytes and dendritic cells.
The monocyte population of BM cells, as defined by light scatter parameters, was analyzed on the second day after treatment with J, gD, JgD or JH.

[2] = tested on: collagen induced arthritis (CIA) model in DBA/IJ mice; assay: Collagen induced arthritis (CIA) model, Arthritis Index; format: in vivo
Procedure: The following study is of CEL-2000 therapeutic vaccine for collagen induced arthritis (CIA) where the first step was to identify a good animal model for testing the vaccine, which is the collagen induced arthritis (CIA) model in young (6-7) week old male DBA/IJ mice. These mice received 2 injections of bovine collagen the first in complete Freund's adjuvant (CFA) on day 0 and then 3 weeks later on day 21, in Incomplete CFA. After the second collagen injection, the mice were evaluated daily for any joint swelling or redness. Each of the paws was scored on a 4 point scale (Arthritis Index (AI) with respect to the number of digits with symptoms and the thickness of the paw measured, at least 3-4 times a week. Each mouse was weighed weekly.
When significant disease is noted, usually about day 28, the mice are grouped (n=8) with a range of scores between 1 and 6 and group mean of 2.5 to 3. At this point the therapy begins according to protocol. Controls include groups with induced disease but no therapy and groups of healthy mice without induced disease. A therapy control of Enbrel® (3 mg/kg, every other day) was included. Over the 28-day course of study, the outcomes of different CEL-2000 and CEL-2003 treatment schedules were compared with Enbrel. In this study, CEL-200 treatment with 2 doses of 33 or 100 nmol were given subcutaneously on days 0 and 7 or on days 0 and 14. CEL-2003 was used at one dose of […] on days 0 and 14. […] The AI score for each paw (4 paws total) were added for each group and reported on FIG. 4.

Sequence | IL-12p70 expressing cells (IL-12p70) | CD11c expression [1] | CD86 expression [1] | progression of arthritis disease (AI score) ([2]; 100 nmol dose (3x treatment) subcutaneously on days 0 and 7, 28-day study) | progression of arthritis disease compared with Enbrel ([2]; 2 doses of 33 or 100 nmol s.c. on days 0 and 7 or 0 and 14 (most regimes), Enbrel 3 mg/kg every other day for 28 days) | Student t test comparison of treatment groups with Enbrel ([2]; days 7, 14 and 21, 3x dose days 0 and 14, 3x days 0 and 7, 1x days 0 and 7 or 0 and 14)
DLLKNGERIEKVE (listed as Homo sapiens) [J-ICBL, ICBL derived from amino acids 38-50 of the β-2-microglobulin chain of the MHC 1 molecule] | no significant increase | no discernible change | no discernible change |  |  | 
DLLKNGERIEKVEGGGSLKMADPNRFRGKDLP [JgD] |  | expressed | expressed |  |  | 
DLLKNGERIEKVEGGGTGGKPGIAGFKGEQGPKGEP (Heteroconjugate construct) [CEL-2000, Peptide J linked to the human type II collagen peptide 254-273 through a triglycine linker] |  |  |  | appeared to limit the progression of disease throughout the experimental period | at least as good as those of mice treated with Enbrel® | slightly better than Embrel
SLKMADPNRFRGKDLP [gD] |  | no discernible change | no discernible change |  |  | 
